Data as given in US10106501B2, “Nuclear receptor modulators” (AbbVie Inc., priority 2015, dated 2018).

target: T1, chimeric human RORγ-Gal4 receptor (Homo sapiens, UniProt P51449); assay: transient transactivation assay (RORγ-Gal4 luciferase reporter); type: cell-based; conditions: Cos-7 cells transfected with RORγ-Gal4 and 5Gal4 pGL3 TK Luc reporter; overnight incubation; T0901317 at 10^-5 M as reference; read-out: IC50
T1 sequence (P51449 269-508 limits assumed): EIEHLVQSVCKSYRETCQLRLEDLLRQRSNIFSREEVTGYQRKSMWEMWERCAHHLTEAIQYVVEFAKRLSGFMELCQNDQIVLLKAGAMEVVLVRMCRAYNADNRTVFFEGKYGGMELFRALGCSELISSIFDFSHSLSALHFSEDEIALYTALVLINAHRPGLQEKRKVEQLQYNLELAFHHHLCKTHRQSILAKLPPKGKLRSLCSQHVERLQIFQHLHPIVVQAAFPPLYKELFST

Row | IC50 [nM] | Structure (SMILES)
1 | < 100 | Cc1cc(C(F)(F)F)cc2c1cc(C(=O)c1c(Cl)ccc(C(=O)N3CC[C@H](C(=O)O)[C@H](C)C3)c1Cl)n2C (racemic) [AQ-3]
2 | 500 to 1000 | Cc1cc(C#N)cc2c1cc(Cc1c(Cl)ccc(O[C@H]3CC[C@@H](C(=O)O)C3)c1Cl)n2C (relative stereo) [Example AG1, cis-3-(2,4-dichloro-3-((6-cyano-1,4-dimethyl-1H-indol-2-yl)methyl)phenoxy)cyclopentanecarboxylic acid]
3 | 100 to 500 | Cc1cc(C#N)cc2c1cc(Cc1c(Cl)ccc(O[C@H]3CC[C@H](C(=O)O)C3)c1Cl)n2C (relative stereo) [Example AG, trans-3-(2,4-dichloro-3-((6-cyano-1,4-dimethyl-1H-indol-2-yl)methyl)phenoxy)cyclopentanecarboxylic acid]
4 | < 100 | COCCN1CCN(C(=O)c2ccc(Cl)c(Cc3cc4c(C)cc(C(F)(F)F)cc4n3C)c2Cl)CC1 [A, (2,4-dichloro-3-((1,4-dimethyl-6-(trifluoromethyl)-1H-indol-2-yl)methyl)phenyl)(4-(2-methoxyethyl)piperazin-1-yl)methanone]
5 | < 100 | Cc1cc(C#N)cc2c1cc(Cc1c(Cl)ccc(C(=O)N3CCC(C(C)O)CC3)c1Cl)n2C (stereo not shown) [AA-1]
6 | 100 to 500 | Cc1cc(C#N)cc2c1cc(Cc1c(Cl)ccc(C(=O)N3CCCC(O)C3)c1Cl)n2C (stereo not shown) [AA-5]
7 | 100 to 500 | Cc1cc(C#N)cc2c1cc(Cc1c(Cl)ccc(C(=O)N3CCC(N(C)C)CC3)c1Cl)n2C [AA-6]
8 | < 100 | Cc1cc(C#N)cc2c1cc(Cc1c(Cl)ccc(C(=O)N3CCC(C(C)(C)CO)CC3)c1Cl)n2C [AA-8]
9 | 100 to 500 | Cc1cc(C#N)cc2c1cc(Cc1c(Cl)ccc(C(=O)N3CCN(C)C(C)C3)c1Cl)n2C (stereo not shown) [AA-10]
10 | < 100 | Cc1cc(C#N)cc2c1cc(Cc1c(Cl)ccc(C(=O)N3CCN(C(C)C)CC3)c1Cl)n2C [AA-11]
11 | 100 to 500 | Cc1cc(C#N)cc2c1cc(Cc1c(Cl)ccc(C(=O)N3CCCN(CCO)CC3)c1Cl)n2C [AA-13]
12 | 100 to 500 | Cc1cc(C#N)cc2c1cc(Cc1c(Cl)ccc(C(=O)N3CCC(N(C)C)C3)c1Cl)n2C (stereo not shown) [AA-14]
13 | 100 to 500 | Cc1cc(C#N)cc2c1cc(Cc1c(Cl)ccc(C(=O)N3CC(N4CCCC4)C3)c1Cl)n2C [AA-16]
14 | 100 to 500 | Cc1cc(C#N)cc2c1cc(Cc1c(Cl)ccc(C(=O)N3CCC(CO)C3)c1Cl)n2C (stereo not shown) [AA-19]
15 | 100 to 500 | Cc1cc(C#N)cc2c1cc(Cc1c(Cl)ccc(C(=O)N3CC(O)C3)c1Cl)n2C [AA-20]
16 | 100 to 500 | COC1CN(C(=O)c2ccc(Cl)c(Cc3cc4c(C)cc(C#N)cc4n3C)c2Cl)C1 [AA-21]
17 | 100 to 500 | Cc1cc(C#N)cc2c1cc(Cc1c(Cl)ccc(C(=O)NC3CCC(O)CC3)c1Cl)n2C (stereo not shown) [AA-22]
18 | 500 to 1000 | Cc1cc(C#N)cc2c1cc(Cc1c(Cl)ccc(C(=O)NC3CCOCC3)c1Cl)n2C [AA-23]
19 | 100 to 500 | Cc1cc(C#N)cc2c1cc(Cc1c(Cl)ccc(C(=O)NC3COC3)c1Cl)n2C [AA-24]
20 | 100 to 500 | Cc1cc(C#N)cc2c1cc(Cc1c(Cl)ccc(C(=O)N3CCC4(CC3)COC4)c1Cl)n2C [AA-25]
21 | 100 to 500 | Cc1cc(C#N)cc2c1cc(Cc1c(Cl)ccc(C(=O)N3CC4(COC4)C3)c1Cl)n2C [AA-26]
22 | 100 to 500 | CNC(=O)[C@@H]1CCCN1C(=O)c1ccc(Cl)c(Cc2cc3c(C)cc(C#N)cc3n2C)c1Cl [AA-32]
23 | 500 to 1000 | Cc1cc(C#N)cc2c1cc(C(=O)c1c(Cl)ccc(C(=O)N3CC(O)C3)c1Cl)n2C [AN-1]
24 | < 100 | Cc1cc(C(F)(F)F)cc2c1cc(C(=O)c1c(Cl)ccc(C(=O)N3CCC(C4COC4)CC3)c1Cl)n2C [AP-6]

Row | IC50 [nM] | Structure (SMILES)
25 | 100 to 500 | Cc1cc(C(F)(F)F)cc2c1cc(C(=O)c1c(Cl)ccc(C(=O)N3C[C@@H]4[C@H](C3)[C@H]4C(=O)O)c1Cl)n2C [AQ-2]
26 | < 100 | Cc1cc(C(F)(F)F)cc2c1cc(C(=O)c1c(Cl)ccc(C(=O)N3CC[C@H](C(=O)O)[C@H](C)C3)c1Cl)n2C [AQ-4]
27 | < 100 | Cc1cc(C(F)(F)F)cc2c1cc(C(=O)c1c(Cl)ccc(C(=O)N3CC[C@@H](C(=O)O)[C@@H](C)C3)c1Cl)n2C [AQ-5]
28 | < 100 | Cc1cc(C(F)(F)F)cc2c1cc(Cc1c(Cl)ccc(C(=O)N3CCC(C(=O)O)CC3)c1Cl)n2C [B, 1-(2,4-dichloro-3-((1,4-dimethyl-6-(trifluoromethyl)-1H-indol-2-yl)methyl)benzoyl)piperidine-4-carboxylic acid]
29 | < 100 | Cc1cc(C#N)cc2c1cc(Cc1c(Cl)cnc(C(=O)N3CCC(C4COC4)CC3)c1Cl)n2C [BF-1]
30 | 100 to 500 | Cc1cc(C#N)cc2c1cc(Cc1c(Cl)cnc(C(=O)N3CCC(O)CC3)c1Cl)n2C [BF-2]
31 | 100 to 500 | Cc1cc(C#N)cc2c1cc(Cc1c(Cl)cnc(C(=O)N3CCN(C4COC4)CC3)c1Cl)n2C [BF-4]
32 | 100 to 500 | Cc1cc(C(F)(F)F)cc2c1cc(Cc1c(Cl)ncc(C(=O)N3CCC(O)(CCO)CC3)c1Cl)n2C [BH-2]
33 | 1000 to 10000 | CNC(=O)[C@@H]1CCCN1C(=O)c1ccc(Cl)c(Cc2nc3c(C)cc(C(F)(F)F)cc3n2C)c1Cl [BJ-1]
34 | < 100 | Cc1cc(C(F)(F)F)cc2c1nc(Cc1c(Cl)ccc(C(=O)N3CCC4(CCOC4)CC3)c1Cl)n2C [BJ-8]
35 | 100 to 500 | Cc1cc(C(F)(F)F)cc2c1nc(Cc1c(Cl)ccc(C(=O)N3CCC(C(C)(C)O)CC3)c1Cl)n2C [BJ-9]
36 | < 100 | Cc1cc(C(F)(F)F)cc2c1nc(Cc1c(Cl)ccc(C(=O)N3CCC(C(C)(C)CO)CC3)c1Cl)n2C [BJ-10]
37 | < 100 | Cc1cc(C(F)(F)F)cc2c1nc(Cc1c(Cl)ccc(C(=O)N3CCC(C(C)O)CC3)c1Cl)n2C (stereo not shown) [BJ-12]
38 | 100 to 500 | COCC1CCN(C(=O)c2ccc(Cl)c(Cc3nc4c(C)cc(C(F)(F)F)cc4n3C)c2Cl)CC1 [BJ-13]
39 | 100 to 500 | Cc1cc(C(F)(F)F)cc2c1nc(Cc1c(Cl)ccc(C(=O)N3CCC(CC(C)(C)O)CC3)c1Cl)n2C [BJ-14]
40 | 100 to 500 | Cc1cc(C(F)(F)F)cc2c1nc(Cc1c(Cl)ccc(C(=O)N3CCC(CCO)CC3)c1Cl)n2C [BJ-16]
41 | < 100 | Cc1cc(C(F)(F)F)cc2c1nc(Cc1c(Cl)ccc(C(=O)N3CCC(C4COC4)CC3)c1Cl)n2C [BJ-17]
42 | < 100 | COCCC1CCN(C(=O)c2ccc(Cl)c(Cc3nc4c(C)cc(C(F)(F)F)cc4n3C)c2Cl)CC1 [BJ-18]
43 | 100 to 500 | Cc1cc(C(F)(F)F)cc2c1nc(Cc1c(Cl)ccc(C(=O)N3CCC(CC(C)O)CC3)c1Cl)n2C (stereo not shown) [BJ-19]
44 | 100 to 500 | COC1CCC(NC(=O)c2ccc(Cl)c(Cc3nc4c(C)cc(C(F)(F)F)cc4n3C)c2Cl)CC1 (stereo not shown) [BJ-22]
45 | 500 to 1000 | Cc1cc(C(F)(F)F)cc2c1nc(Cc1c(Cl)ccc(C(=O)N3CCC4(CC3)COC4)c1Cl)n2C [BJ-25]
46 | 1000 to 10000 | Cc1cc(C(F)(F)F)cc2c1nc(Cc1c(Cl)ccc(C(=O)N3CC4(COC4)C3)c1Cl)n2C [BJ-28]
47 | 100 to 500 | Cc1cc(C(F)(F)F)cc2c1nc(Cc1c(Cl)ccc(C(=O)N3CCC(N(C)C)CC3)c1Cl)n2C [BJ-30]
48 | 1000 to 10000 | Cc1cc(C(F)(F)F)cc2c1nc(Cc1c(Cl)ccc(C(=O)N3CCN(C)C(C)C3)c1Cl)n2C (stereo not shown) [BJ-31]

Row | IC50 [nM] | Structure (SMILES)
49 | 100 to 500 | Cc1cc(C(F)(F)F)cc2c1nc(Cc1c(Cl)ccc(C(=O)N3CCN(C4COC4)CC3)c1Cl)n2C [BJ-38]
50 | 100 to 500 | Cc1cc(C(F)(F)F)cc2c1nc(Cc1c(Cl)ccc(C(=O)N3CCN(C(C)C)CC3)c1Cl)n2C [BJ-40]
51 | 100 to 500 | COCCC1CCN(C(=O)c2ccc(Cl)c(Cc3nc4c(C)cc(C#N)cc4n3C)c2Cl)CC1 [BN-3]
52 | 100 to 500 | Cc1cc(C#N)cc2c1nc(Cc1c(Cl)ccc(C(=O)N3CCC(C(C)(C)CO)CC3)c1Cl)n2C [BN-6]
53 | 100 to 500 | Cc1cc(C#N)cc2c1nc(Cc1c(Cl)ccc(C(=O)N3CCC(C(C)(C)O)CC3)c1Cl)n2C [BN-7]
54 | 100 to 500 | Cc1cc(C#N)cc2c1nc(Cc1c(Cl)ccc(C(=O)N3CCC4(CCOC4)CC3)c1Cl)n2C [BN-8]
55 | 500 to 1000 | Cc1cc(C#N)cc2c1nc(Cc1c(Cl)ccc(C(=O)N3CCN(C4COC4)CC3)c1Cl)n2C [BN-11]
56 | 100 to 500 | Cc1cc(C#N)cc2c1nc(Cc1c(Cl)ccc(C(=O)N3CCC(C4COC4)CC3)c1Cl)n2C [BN-12]
57 | 1000 to 10000 | Cc1cc(C#N)cc2c1nc(Cc1c(Cl)ccc(C(=O)N3CCC(N(C)C)CC3)c1Cl)n2C [BN-14]
58 | 500 to 1000 | Cc1cc(C#N)cc2c1nc(Cc1c(Cl)ccc(C(=O)N3CCC(CC(C)(C)O)CC3)c1Cl)n2C [BN-16]
59 | 100 to 500 | Cc1cc(C(F)(F)F)cc2c1nc(Cc1c(Cl)ccc(CN3CCC(C4COC4)CC3)c1Cl)n2C [BW-1]
60 | 100 to 500 | COC1CCN(Cc2ccc(Cl)c(Cc3nc4c(C)cc(C(F)(F)F)cc4n3C)c2Cl)CC1 [BW-2]
61 | 100 to 500 | COCC1CCN(Cc2ccc(Cl)c(Cc3nc4c(C)cc(C(F)(F)F)cc4n3C)c2Cl)CC1 [BW-3]
62 | 100 to 500 | Cc1cc(C(F)(F)F)cc2c1nc(Cc1c(Cl)ccc(CN3CCC(O)CC3)c1Cl)n2C [BW-4]
63 | 100 to 500 | Cc1cc(C(F)(F)F)cc2c1nc(Cc1c(Cl)ccc(CN3CCCC(O)C3)c1Cl)n2C (stereo not shown) [BW-5]
64 | 100 to 500 | Cc1cc(C(F)(F)F)cc2c1nc(Cc1c(Cl)ccc(CN3CCC(C(C)(C)CO)CC3)c1Cl)n2C [BW-6]
65 | 100 to 500 | Cc1cc(C(F)(F)F)cc2c1nc(Cc1c(Cl)ccc(CN3CCC(C(C)(C)O)CC3)c1Cl)n2C [BW-7]
66 | 100 to 500 | Cc1cc(C(F)(F)F)cc2c1nc(Cc1c(Cl)ccc(CN3CCC4(CCOC4)CC3)c1Cl)n2C [BW-8]
67 | 100 to 500 | COCCN1CCN(Cc2ccc(Cl)c(Cc3nc4c(C)cc(C(F)(F)F)cc4n3C)c2Cl)CC1 [BW-9]
68 | 100 to 500 | Cc1cc(C(F)(F)F)cc2c1nc(Cc1c(Cl)ccc(CN3CCOCC3)c1Cl)n2C [BW-10]
69 | 100 to 500 | Cc1cc(C(F)(F)F)cc2c1nc(Cc1c(Cl)ccc(CN3CCC(CCO)CC3)c1Cl)n2C [BW-11]
70 | 500 to 1000 | Cc1cc(C(F)(F)F)cc2c1nc(Cc1c(Cl)ccc(CN3CCC(CC(C)(C)O)CC3)c1Cl)n2C [BW-12]
